Experimental data: patent publication US12202843B2, “Muscarinic receptor agonists” (Nxera Pharma UK Limited, priority 2014, dated 2025)

Legend:
[1] = molecular target: T1, human muscarinic M3 receptor (Homo sapiens, UniProt P20309); assay: Alphascreen Surefire phospho-ERK1/2 functional assay, M3; assay type: cell-based; details: CHO cells stably expressing human M3, relative to ACh, listed as 2-2 Isomer 1
T1 construct: expressed in transfected cells

[2] = molecular target: T2, human muscarinic M4 receptor (Homo sapiens, UniProt P08173); assay: Alphascreen Surefire phospho-ERK1/2 functional assay, M4; assay type: cell-based; details: CHO cells stably expressing human M4, relative to ACh, listed as 2-2 Isomer 1
T2 construct: expressed in transfected cells
T2 sequence (P08173 1-479): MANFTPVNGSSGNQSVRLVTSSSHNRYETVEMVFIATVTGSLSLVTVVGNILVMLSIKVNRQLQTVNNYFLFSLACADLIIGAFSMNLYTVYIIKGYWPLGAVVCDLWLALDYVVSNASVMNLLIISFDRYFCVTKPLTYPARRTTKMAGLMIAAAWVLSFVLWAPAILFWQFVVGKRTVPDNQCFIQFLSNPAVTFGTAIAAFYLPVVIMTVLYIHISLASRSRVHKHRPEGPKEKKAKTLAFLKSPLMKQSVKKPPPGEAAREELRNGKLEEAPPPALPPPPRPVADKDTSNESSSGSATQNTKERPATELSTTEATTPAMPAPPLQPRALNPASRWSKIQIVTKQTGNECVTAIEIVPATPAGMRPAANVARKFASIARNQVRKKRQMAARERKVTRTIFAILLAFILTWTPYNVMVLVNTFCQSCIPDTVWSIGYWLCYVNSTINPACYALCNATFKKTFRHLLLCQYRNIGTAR

[3] = molecular target: T3, human muscarinic M2 receptor (Homo sapiens, UniProt P08172); assay: Alphascreen Surefire phospho-ERK1/2 functional assay, M2; assay type: cell-based; details: CHO cells stably expressing human M2, relative to ACh
T3 sequence (P08172 1-466): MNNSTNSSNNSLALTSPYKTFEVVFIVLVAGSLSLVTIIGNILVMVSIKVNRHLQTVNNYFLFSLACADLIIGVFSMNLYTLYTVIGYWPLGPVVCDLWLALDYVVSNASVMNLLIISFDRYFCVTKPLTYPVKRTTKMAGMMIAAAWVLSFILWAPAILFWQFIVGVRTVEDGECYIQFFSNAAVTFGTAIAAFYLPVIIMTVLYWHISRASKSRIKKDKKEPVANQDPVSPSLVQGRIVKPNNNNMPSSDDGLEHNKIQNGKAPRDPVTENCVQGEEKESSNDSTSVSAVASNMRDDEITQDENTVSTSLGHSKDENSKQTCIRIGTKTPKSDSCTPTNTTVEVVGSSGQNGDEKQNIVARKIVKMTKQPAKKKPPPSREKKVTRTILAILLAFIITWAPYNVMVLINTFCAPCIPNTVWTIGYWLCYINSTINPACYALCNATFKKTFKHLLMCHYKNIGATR

[4] = test system: scopolamine-induced amnesia; assay: Passive avoidance, scopolamine-induced amnesia; assay type: in vivo; details: 90 minutes prior to training
Description: Studies were carried out as described previously by Foley et al., (2004) Neuropsychopharmacology. In the passive avoidance task scopolamine administration (1 mg/kg, i.p.) at 6 hours following training rendered animals amnesic of the paradigm. A dose range of 3, 10, and 30 mg/kg (po) free base, administered 90 minutes prior to the training period via oral gavage, was examined.

T1 sequence (P20309 whole entry): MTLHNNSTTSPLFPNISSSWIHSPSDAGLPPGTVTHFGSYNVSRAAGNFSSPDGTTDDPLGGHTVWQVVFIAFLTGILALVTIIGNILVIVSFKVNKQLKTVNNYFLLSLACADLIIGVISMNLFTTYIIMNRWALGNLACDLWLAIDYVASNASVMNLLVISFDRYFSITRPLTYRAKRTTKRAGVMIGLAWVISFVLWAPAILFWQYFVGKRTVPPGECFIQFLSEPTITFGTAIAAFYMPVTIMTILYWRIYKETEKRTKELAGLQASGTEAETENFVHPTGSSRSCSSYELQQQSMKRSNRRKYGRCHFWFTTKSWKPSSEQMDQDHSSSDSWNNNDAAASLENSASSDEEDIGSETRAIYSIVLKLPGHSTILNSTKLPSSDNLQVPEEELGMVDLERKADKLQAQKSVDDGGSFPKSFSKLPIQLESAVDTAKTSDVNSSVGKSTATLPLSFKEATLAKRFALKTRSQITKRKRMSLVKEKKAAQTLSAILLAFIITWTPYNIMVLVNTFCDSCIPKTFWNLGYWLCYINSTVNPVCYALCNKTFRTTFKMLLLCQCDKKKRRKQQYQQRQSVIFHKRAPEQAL

Structure (SMILES): CCOC(=O)N1C2CCC1CC(N1CCC3(CC1)CNC(=O)C3)C2 (single isomer, unassigned) [Example 2-2 Isomer 1, ethyl 3-(3-oxo-2,8-diazaspiro[4.5]dec-8-yl)-8-azabicyclo[3.2.1]octane-8-carboxylate]
- % Emax cf. ACh, M3 [1]: 17%
- % Emax cf. ACh, M4 [2]: 53%
- % Emax cf. ACh, M2 [3]: 0%
- reversal of scopolamine-induced amnesia in passive avoidance ([4]; 3, 10 and 30 mg/kg po free base, scopolamine 1 mg/kg i.p.): reverse scopolamine-induced amnesia of the paradigm in a dose-dependent manner
- ED50 ([4]; po, scopolamine 1 mg/kg i.p. 6 hours following training, read-out: approximate ED50, reversal of scopolamine-induced amnesia): ~10 mg/kg
